Patent publication US12063932B2, “Method of promoting plant growth effects” (Bayer CropScience Aktiengesellschaft, priority 2016, dated 2024)

Assays:
Format in all cases: in vivo
[1] = test system: Roses of the variety Kordana Mixkar; assay: Rose foliar application: number of flowers by visual inspection (Example D); conditions: for No Flowers, Average (A to E): average of five replicates, untreated controls 9.4 and 10.2; for No Flowers, A: replicate A; for No Flowers, A / No Flowers, B / No Flowers, C / No Flowers, D / No Flowers, E: assessed 2016-06-14; for No Flowers, B: replicate B; for No Flowers, C: replicate C; for No Flowers, D: replicate D; for No Flowers, E: replicate E
Description: FIGS. 2A-2H. Rose plants of the variety Kordana Mixkar were treated in five replicates. Untreated control is shown in FIG. 2A (side view) and FIG. 2B (top view). Treatment at 1 ppm is shown in FIG. 2C (side view) and FIG. 2D (top view). Treatment at 80 ppm is shown in FIG. 2E (side view) and FIG. 2F (top view). Treatment at 420 ppm is showing in FIG. 2G (side view) and FIG. 2H (top view). Rose plants were evaluated for quantity and fullness of flowers.
Roses of the variety Kordana Mixkar were cultivated in 2 litre pots in soil in the greenhouse at 23 degree Celsius and 80% humidity. Compound (A) and Clopyralid as a comparison were applied as a foliar application on 2016-05-25 at application rates according to the following table 3 Ammonium sulfate and methylated soybean oil were used as penetration enhancing agents.
Rose plants were treated in five replicates. The number of flowers was assessed by visual inspection on 2016-06-14.

[2] = test system: Soybean seeds of the variety Merlin; assay: Soybean seed treatment: plant height, fresh and dry weight of stem and roots after 19 days (Example A); conditions: for dry weight roots, % of untreated control / dry weight stem, % of untreated control / fresh weight roots, % of untreated control / fresh weight stem, % of untreated control: untreated control given as 100
Description: (§1) Soybean seeds of the variety Merlin were treated with 1.2, 0.6 and 0.3 g of compound (A) per 100 kg seeds. Compound (A) was provided as an aqueous solution with a concentration of 1000 ppm compound (A). The treated seeds were seeded into soil/quartz in five replicates at the same day. Germination was observed four days later. Plant height, fresh and dry weight of stem and roots were determined after 19 days.

[3] = test system: Soybean seeds of the variety Merlin; assay: Soybean seed treatment: root volume after 19 days (Example B); conditions: untreated control 0.82
Description: as §1, with “Root volume was” for “Plant height, fresh and dry weight of stem and roots were”

[4] = test system: Soybean seeds of the variety Merlin; assay: Soybean seed treatment: comparative photographs of seedlings after 19 days (Example C)
Description: FIGS. 1A-1H. Soybean seeds of the variety Merlin were untreated FIG. 1A (top view) and FIG. 1B (side view), or treated 1.2 g/100 kg/seeds of Compound (A) in FIG. 1C (top view) and FIG. 1D (side view); or treated with 0.6 g/100 kg seeds of Compound (A) in FIG. 1E (Lop view) and FIG. 1F (side view); or treated with 0.3 g/100 kg seeds of compound (A) in FIG. 1G (top view) and FIG. 1H (side view). Seedlings were evaluated after 19 days. Soybean seeds of the variety Merlin were treated with 1.2, 0.6 and 0.3 g of compound (A) per 100 kg seeds. Compound (A) was provided as an aqueous solution with a concentration of 1000 ppm compound (A). The treated seeds were seeded into soil/quartz in five replicates at the same day. Germination was observed four days later. Comparative photographs were taken after 19 days.

[5] = seed treatment 0.3 g/100 kg seeds
[6] = seed treatment 0.6 g/100 kg seeds
[7] = seed treatment 1.2 g/100 kg seeds
[8] = 0.3 g/100 kg seeds, photographs after 19 days (FIGS. 1G, 1H)
[9] = 0.6 g/100 kg seeds, photographs after 19 days (FIGS. 1E, 1F)

`O=C(O)c1ncc(C(F)(F)F)cc1Cl` [Compound (A), 3-chloro-5-(trifluoromethyl)pyridine-2-carboxylic acid] was tested, and the “No Flowers, Average (A to E)” value ([1]; 1 ppm foliar) was 9.6, the “No Flowers, A” value ([1]; 1 ppm foliar) was 8 and the “No Flowers, B” value ([1]; 1 ppm foliar) was 7. The “No Flowers, C” value ([1]; 1 ppm foliar) was 11, the “No Flowers, D” value ([1]; 1 ppm foliar) was 10 and the “No Flowers, E” value ([1]; 1 ppm foliar) was 12. For the same molecule, the “No Flowers, Average (A to E)” value ([1]; 10 ppm foliar) was 10.2, the “No Flowers, A” value ([1]; 10 ppm foliar) was 11 and the “No Flowers, B” value ([1]; 10 ppm foliar) was 10. For the same molecule, the “No Flowers, C” value ([1]; 10 ppm foliar) was 10, the “No Flowers, D” value ([1]; 10 ppm foliar) was 10 and the “No Flowers, E” value ([1]; 10 ppm foliar) was 10. The “No Flowers, Average (A to E)” value ([1]; 20 ppm foliar) was 10.6, the “No Flowers, A” value ([1]; 20 ppm foliar) was 11 and the “No Flowers, B” value ([1]; 20 ppm foliar) was 10. For the same molecule, the “No Flowers, C” value ([1]; 20 ppm foliar) was 12, the “No Flowers, D” value ([1]; 20 ppm foliar) was 10 and the “No Flowers, E” value ([1]; 20 ppm foliar) was 10. The “No Flowers, Average (A to E)” value ([1]; 40 ppm foliar) was 11.2, the “No Flowers, A” value ([1]; 40 ppm foliar) was 11 and the “No Flowers, B” value ([1]; 40 ppm foliar) was 8. The “No Flowers, C” value ([1]; 40 ppm foliar) was 13, the “No Flowers, D” value ([1]; 40 ppm foliar) was 12 and the “No Flowers, E” value ([1]; 40 ppm foliar) was 12. For the same molecule, the “No Flowers, Average (A to E)” value ([1]; 80 ppm foliar) was 11.4, the “No Flowers, A” value ([1]; 80 ppm foliar) was 12 and the “No Flowers, B” value ([1]; 80 ppm foliar) was 13. The “No Flowers, C” value ([1]; 80 ppm foliar) was 11, the “No Flowers, D” value ([1]; 80 ppm foliar) was 11 and the “No Flowers, E” value ([1]; 80 ppm foliar) was 10. The “No Flowers, Average (A to E)” value ([1]; 170 ppm foliar) was 8.8, the “No Flowers, A” value ([1]; 170 ppm foliar) was 8 and the “No Flowers, B” value ([1]; 170 ppm foliar) was 10. The “No Flowers, C” value ([1]; 170 ppm foliar) was 10, the “No Flowers, D” value ([1]; 170 ppm foliar) was 5 and the “No Flowers, E” value ([1]; 170 ppm foliar) was 11. The “No Flowers, Average (A to E)” value ([1]; 250 ppm foliar) was 5.4, the “No Flowers, A” value ([1]; 250 ppm foliar) was 3 and the “No Flowers, B” value ([1]; 250 ppm foliar) was 9. For the same molecule, the “No Flowers, C” value ([1]; 250 ppm foliar) was 3, the “No Flowers, D” value ([1]; 250 ppm foliar) was 4 and the “No Flowers, E” value ([1]; 250 ppm foliar) was 8. For the same molecule, the “No Flowers, Average (A to E)” value ([1]; 420 ppm foliar) was 5, the “No Flowers, A” value ([1]; 420 ppm foliar) was 8 and the “No Flowers, B” value ([1]; 420 ppm foliar) was 7. The “No Flowers, C” value ([1]; 420 ppm foliar) was 3, the “No Flowers, D” value ([1]; 420 ppm foliar) was 4 and the “No Flowers, E” value ([1]; 420 ppm foliar) was 3. The “No Flowers, Average (A to E)” value ([1]; 850 ppm foliar) was 5.2, the “No Flowers, A” value ([1]; 850 ppm foliar) was 2 and the “No Flowers, B” value ([1]; 850 ppm foliar) was 3. For the same molecule, the “No Flowers, C” value ([1]; 850 ppm foliar) was 10, the “No Flowers, D” value ([1]; 850 ppm foliar) was 5 and the “No Flowers, E” value ([1]; 850 ppm foliar) was 6. For the same molecule, the “quantity and fullness of flowers versus untreated controls” value ([1]; foliar application, up to a concentration of 80 ppm, FIGS. 2C-2H) was “more and fuller flowers than the untreated controls”, the “Fresh weight plant” value [2, 5] was 2.62 g and the “Plant height [% of untreated control]” value [2, 5] was 111 % of untreated control. The dry weight roots, % of untreated control [2, 5] was 105%, the dry weight stem, % of untreated control [2, 5] was 114% and the fresh weight roots, % of untreated control [2, 5] was 106%. For the same molecule, the fresh weight stem, % of untreated control [2, 5] was 103%, the “Fresh weight plant” value [2, 6] was 2.53 g and the “Plant height [% of untreated control]” value [2, 6] was 103 % of untreated control. It also gave a dry weight roots, % of untreated control [2, 6] of 108%, a dry weight stem, % of untreated control [2, 6] of 107% and a fresh weight roots, % of untreated control [2, 6] of 107%. The fresh weight stem, % of untreated control [2, 6] was 100%, the “Fresh weight plant” value [2, 7] was 2.24 g and the “Plant height [% of untreated control]” value [2, 7] was 87 % of untreated control. For the same molecule, the dry weight roots, % of untreated control [2, 7] was 68%, the dry weight stem, % of untreated control [2, 7] was 77% and the fresh weight roots, % of untreated control [2, 7] was 69%. For the same molecule, the fresh weight stem, % of untreated control [2, 7] was 88%, the “Root volume [cm^3]” value [3, 5] was 0.83 cm^3 and the “Root volume [cm^3]” value [3, 6] was 0.96 cm^3. For the same molecule, the “Root volume [cm^3]” value [3, 7] was 0.50 cm^3, the “biomass of leaves in comparison to the untreated control” value [4, 8] was “increased biomass of leaves” and the “growth of the seedlings in comparison to the untreated control” value [4, 8] was “higher growth of the seedlings”. The “biomass of leaves in comparison to the untreated control” value [4, 9] was “increased biomass of leaves” and the “growth of the seedlings in comparison to the untreated control” value [4, 9] was “higher growth of the seedlings”.
